Legend:
[1] = system: ROS 17/2.8 rat osteosarcoma cells; assay: Effect on intracellular cAMP in ROS 17/2.8 cells; format: cell-based
Experimental: (§1) RCT-1 and RCT-3 are clonal cell lines immortalized by SV-40 large T antigen from cells released from fetal rat calvair by a cmbination collagenase/hyaluronidase digestion. RCT-1 cells, derived from cells released during the first 10 minutes of digestion (fraction I), are cultured in RPMI 1640 medium (BRL) with 10% fetal bovine serum and 0.4 mg/ml G418 (BRL). These cells differentiate and express osteoblastic features upon retinoic acid treatment. RCT-3 cells, immortalized from osteoblast-enriched fraction […] cells, are cultured in F-12 medium (BRL) with 5% Fetal bovine serum and 0.4 mg/ml G418. TRAB-11 cells are also immortalized by SV40 large T antigen from adult rat tibia and are cultured in RPMI 1640 medium with 10% FBS and 0.4 mg/ml G418. ROS 17/2.8 rat osteosarcoma cells are cultured in F-12 containing 5% FBS. Osteoblast-enriched (fraction III) primary fetal rat calvaria cells are obtained by collagenase/hyaluronidase digestion of calvariae of 19 day-old rat fetuses. See Rodan et al., Growth stimulation of rat calvaria osteoblastic cells by acidic FGF, Endocrinology, 121, 1919-1923 (1987), which is incorporated by reference herein in its entirety. Cells are released during 30-50 minutes digestion (fraction III) and are cultured in F-12 medium containing 5% FBS. […]

[2] = system: RCT-3 cells; assay: Effect on intracellular cAMP in RCT-3 cells; format: cell-based, rat
Experimental: as §1

[3] = system: TRAB-11 cells; assay: Effect on intracellular cAMP in TRAB-11 cells; format: cell-based, rat
Experimental: as §1

[4] = system: RP-1 periosteal cells; assay: EP4 and EP2 mRNA expression in RP-1 periosteal cells (Northern blot); format: cell-based, rat; settings: RP-1 cells
Experimental: RP-1 periosteal cells are spontaneously immortalized from primary cultures of periosteal cells from tibae of 4-week old Sprague-Dawley rats and are cultured in DMEM (BRL, Gaithersburg, Md.) with 10% fetal bovine serum (JRH Biosciences, Lenexa, Kans.).
Total RNA is extracted from the tibial metaphysis or diaphysis and calvaria using a guanidinium isothiocyanate-phenol-chloroform method after pulverizing frozen bone samples by a tissue homogenizer. See P. Chomczynski et al., Single-step method of RNA isolation by acid guanidium thiocyanate-phenol-chloroform extraction., Analyt Biochem, 162, 156-159 (1987), which is incorporated by reference herein in its entirety. RNA samples ([…]) are separated on 0.9% agarose/formaldehyde gels and transferred onto nylon membranes (Boehringer Mannheim, Germany). Membranes are prehybridized in Hybrisol I (Oncor, Gaithersburg, Md.) and 0.5 mg/ml sonicated salmon sperm DNA (Boehringer) at 42° C. for 3 hours and are hybridized at 420C with rat EP2 and mouse EP4 cDNA probes labeled with [^32P]-dCTP (Amersham, Buckinghamshire, UK) by random priming using the rediprime kit (Amersham). After hybridization, membranes are washed 4 times in 2×SSC+0.1% SDS at room temperature for a total of 1 hour and once with 0.2×SSC+0.1% SDS at 550C for 1 hour and then exposed to Kodak XAR 2 film at −70° C. using intensifying screens. […]

[5] = system: RCT-3 cells; assay: EP4 mRNA expression in RCT-3 cells (Northern blot); format: cell-based, rat
Experimental: as §1

[6] = system: EP4 mRNA in bone tissue; assay: EP4 and EP2 mRNA levels in bone tissue of injected rats (Northern blot); format: in vivo, rat; settings: injected 3-6 mg/Kg
Experimental: (§2) For mRNA localization experiments, 5-week old Sprague-Dawley rats (Charles River) are euthanized by CO2, their tibiae and calvariae are excised, cleaned of soft tissues and frozen immediately in liquid nitrogen. For EP4 regulation experiments, 6-week old rats are given a single injection of either vehicle (7% ethanol in sterile water) or an anabolic dose of PGE2 (Cayman Chemical, Ann Arbor, Mich.), 3-6 mg/kg in the same vehicle) intraperitoneally. Animals are euthanized at several time points post-injection and their tibiae and calvariae, as well as samples from lung and kidney tissues are frozen in liquid nitrogen.
Total RNA is extracted from the tibial metaphysis or diaphysis and calvaria using a guanidinium isothiocyanate-phenol-chloroform method after pulverizing frozen bone samples by a tissue homogenizer. See P. Chomczynski et al., Single-step method of RNA isolation by acid guanidium thiocyanate-phenol-chloroform extraction., Analyt Biochem, 162, 156-159 (1987), which is incorporated by reference herein in its entirety. RNA samples ([…]) are separated on 0.9% agarose/formaldehyde gels and transferred onto nylon membranes (Boehringer Mannheim, Germany). […]

[7] = system: EP4 expression in bone marrow cells; assay: Localization of EP4 mRNA in bone tissue by in situ hybridization; format: in vivo, rat; settings: rats, single anabolic dose
Experimental: as §2
Frozen tibiae are sectioned coronally at […] thickness and sections are mounted on charged slides (Probe On Plus, Fisher Scientific, Springfield, N.J.) and are kept at −70° C. until hybridization. cRNA probes are labeled with ^35S-UPgS (ICN, Costa Mesa, Calif.) using a Riboprobe II kit (Promega Madison, Wis.). Hybridization is performed overnight at 50° C. See M. Weinreb et al., Different pattern of alkaline phosphatase, osteopontin and osteocalcin expression in developing rat bone visualized by in-situ hybridization, J. Bone Miner Res., 5, 831-842 (1990) and D. Shinar et al., Expression of alphav and beta3 integrin subunits in rat osteoclasts in situ, J. Bone Miner. Res., 8, 403-414 (1993), which are both incorporated by reference herein in their entirety. […]

## CCCCC[C@H](O)/C=C/[C@H]1[C@H](O)CC(=O)[C@@H]1C/C=C\CCCC(=O)O [PGE2]
[1]
  effect on intracellular cAMP: no effect
[2]
  effect on intracellular cAMP: markedly induced
[3]
  effect on intracellular cAMP: markedly induced
[4]; 10^−6 M
  EP4 mRNA levels: rapidly increases
[4]; before or after treatment
  EP2 mRNA expression: not expressed
[5]
  EP4 mRNA levels: no effect
[6]; five-week-old male rats
  EP4 mRNA levels in the tibial diaphysis: rapidly increased
[6]; rats
  EP2 mRNA in bone tissue: does not induce
[7]
  expression of EP4 in bone marrow cells: increased

Source: patent US20040204590A1, “Ep4 receptor agonist, compositions and methods thereof” (priority 2001, published 2004)
